US20240272164A1, “METHODS FOR CLASSIFYING TUMORS AND USES THEREFOR” (THE UNIVERSITY OF QUEENSLAND, priority 2015, published 2024)
Entries after “also recorded” stand apart in the source; their conditions may differ.

What was measured:
Type in all cases: cell-based
breast cancer cell lines = tested on: breast cancer cell lines
Text: Dyngo4a, a small molecule inhibitor of dynamin, was used to block dynamin-mediated endocytosis (Mccluskey et al., 2013) and added into the immune-dependent cytotoxicity assays. […] However, the specific cell death of BT474 cells was not enhanced following treatment with Dyngo4a (FIG. 4C).

A431 cells = experiment: EGF-Alexa488 uptake and clathrin localisation, confocal and 3D-SIM super-resolution microscopy; details: for Internalization of EGF-Alexa488: 30 min drug, EGF-Alexa488 last five minutes, confocal, FIG. 7A-C; for Clathrin recruitment to the plasma membrane: 3D-SIM volume projections, FIG. 7G-I; for Effect on HER1 (EGFR) at the plasma membrane: Pitstop-2 30 μM or chlorpromazine 18 μM, 30 min
Protocol: To discuss the experiments in more detail, A431 cells were incubated in serum-free medium with no drugs (control), or with Pitstop®-2 for 30 min or chlorpromazine for 30 min. During the last five minutes of treatment EGF-Alexa488 was added to monitor CME, after which cells were fixed and imaged (FIG. 7A-C).
Volume projections of a small area of the cell periphery were used to examine the recruitment of clathrin and EGF-positive sites to the cell periphery (FIG. 7G-I). The angle of 3D projection was chosen to show the upper surface of the cell plasma membrane. Points of co-localisation between EGF-Alexa^488 and Alexa^594-conjugated antibodies (which detects clathrin) are rare in 3D-SIM due to the capture of frequency information differences between the 488 and 594 excitation/emission spectra. […] A clathrin punctum was defined as being recruited an HER1-positive site when there was 50 nm or less distance between the clathrin and EGF puncta.
A431 cells were seeded on coverslips in 12-well plates and incubated overnight to reach 80% confluence for super-resolution microscopy based on structured illumination. After a 3 hour-serum starvation the cells were treated with 30 μM of Pitstop®-2 or 18 μM chlorpromazine for 30 min, followed by 5 min uptake with EGF-Alexa488 (100 ng/ml). The uptake of EGF was stopped by washing three times in ice cold PBS. The cells were fixed in 4% paraformaldehyde/phosphate-buffered saline for 30 min and washed three times in phosphate-buffered saline before DAPI staining for 30 min. The coverslips were mounted on slides in Prolong Gold (Life technologies) for confocal analysis or glycerol-based imaging media for three dimensional structured illumination microscopy (3D-SIM). Confocal images were acquired using a Zeiss 510 Meta confocal with a 63 Å˜ objective. Reconstructing the subsequent images after modulating the illumination pattern produces super-resolution images with double the lateral and axial resolution and up to 10 μm into the cell. 3D-SIM images were captured on a Deltavision OMX V3 Imaging System (Applied Precision), EMCCD cameras (CascadeII 512×512 Photometrics) and using a 60×1.4-NA UPlanSApo oil-immersion objective (Olympus) with oil of a refractive index of 1.518. […] Images were computationally reconstructed using Deltavision SoftWorX6.0 Beta 19 software (Applied Precision).

[1] = tested on: Cetuximab-sensitive or resistant cell lines; experiment: ADCC in response to Cetuximab with endocytosis inhibitors; details: either Cetuximab-sensitive or resistant cell lines
Protocol: If only the plasma membrane levels of HER1 determine ADCC response then we would expect that any pharmacological blockade of HER1 internalization would be expected to enhance ADCC. Thus, numerous endocytosis inhibitors were tested to investigate this hypothesis.

## O=C(N/N=C/c1cc(O)c(O)cc1O)c1cc2ccccc2cc1O [Dyngo4a]
Breast cancer cell lines
  Toxicity of Dyngo4a: non-toxic

## O=C1NC(=NS(=O)(=O)c2cccc3ccccc23)S/C1=C\c1ccc(Br)cc1 [Pitstop®-2]
A431 cells; A431 cells
  Internalization of EGF-Alexa488: no internalization
  Clathrin recruitment to the plasma membrane: clathrin was not recruited
A431 cells; A431 cells, confocal and 3D-SIM
  Inhibition of CCV (clathrin coated vesicle) formation: inhibits CCV formation
A431 cells
  Effect on HER1 (EGFR) at the plasma membrane: caused HER1 to be trapped on the plasma membrane
[1]
  Effect on ADCC in response to Cetuximab: did not increase ADCC

## CN(C)CCCN1c2ccccc2Sc2ccc(Cl)cc21 [chlorpromazine]
A431 cells; A431 cells
  Internalization of EGF-Alexa488: no internalization
  Clathrin recruitment to the plasma membrane: does not inhibit clathrin recruitment
A431 cells
  Effect on HER1 (EGFR) at the plasma membrane: clustering and recruitment of HER1 into CCVs; also recorded: abundant EGFR was trapped at the cell membrane
